# Legend:
# cheatgrass = assay: Test B preemergence/postemergence greenhouse plant response rating 0 to 10; assay type: in vivo, Bromus secalinus; settings: 0 to 10 scale
# Summary of the method: (§1)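 Planted seeds are treated preemergence with compound dissolved in a non-phytotoxic solvent, while postemergence applications go onto plants of two to eighteen cm. Plants stay in the greenhouse twelve to sixteen days and are then rated visually relative to controls.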
# cotton = assay: as above; assay type: in vivo, Gossypium hirsutum; settings: 0 to 10 scale
# Summary of the method: as §1
# lambsquarters [1] = assay: as above; assay type: in vivo, Chenopodium album; settings: 0 to 10 scale
# Summary of the method: as §1
# rice = assay: as above; assay type: in vivo, Oryza sativa; settings: 0 to 10 scale
# Summary of the method: as §1
# soybean [2] = assay: as above; assay type: in vivo, Glycine max; settings: 0 to 10 scale
# Summary of the method: as §1
# velvetleaf [3] = assay: as above; assay type: in vivo, Abutilon theophrasti; settings: 0 to 10 scale
# Summary of the method: as §1
# wild buckwheat = assay: as above; assay type: in vivo, Polygonum convolvulus; settings: 0 to 10 scale
# Summary of the method: as §1
# purple nutsedge = assay: as above; assay type: in vivo, Cyperus rotundus; settings: 0 to 10 scale
# Summary of the method: as §1
# barley = assay: Test C preemergence/postemergence greenhouse plant response rating 0 to 100; assay type: in vivo, Hordeum vulgare; settings: POSTEMERGENCE; for Plant response rating Barley Igri: 0 to 100 scale
# Summary of the method: (§2)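 Compounds in non-phytotoxic solvent applied preemergence to sandy loam one day after planting, postemergence at the 1–4 leaf stage, or to ~2.5 cm floodwater over silt loam.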
# corn = assay: as above; assay type: in vivo, Zea mays; settings: POSTEMERGENCE; for Plant response rating, Corn: 0 to 100 scale
# Summary of the method: as §2
# lambsquarters [4] = assay: as above; assay type: in vivo, Chenopodium album; settings: POSTEMERGENCE; for Plant response rating Lambsquarters: 0 to 100 scale
# Summary of the method: as §2
# morningglory = assay: as above; assay type: in vivo, Ipomoea hederacea; settings: POSTEMERGENCE; for Plant response rating, Morningglory: 0 to 100 scale
# Summary of the method: as §2
# rape = assay: as above; assay type: in vivo, Brassica napus; settings: POSTEMERGENCE; for Plant response rating, Rape: 0 to 100 scale
# Summary of the method: as §2
# sorghum = assay: as above; assay type: in vivo, Sorghum bicolor; settings: POSTEMERGENCE; for Plant response rating, Sorghum: 0 to 100 scale
# Summary of the method: as §2
# soybean [5] = assay: as above; assay type: in vivo, Glycine max; settings: POSTEMERGENCE; for Plant response rating, Soybean: 0 to 100 scale
# Summary of the method: as §2
# sugar beet = assay: as above; assay type: in vivo, Beta vulgaris; settings: POSTEMERGENCE; for Plant response rating, Sugar beet: 0 to 100 scale
# Summary of the method: as §2
# velvetleaf [6] = assay: as above; assay type: in vivo, Abutilon theophrasti; settings: POSTEMERGENCE; for Plant response rating, Velvetleaf: 0 to 100 scale
# Summary of the method: as §2
# umbrella sedge = assay: Test C flood test plant response rating 0 to 100; assay type: in vivo, Cyperus difformis; settings: for Plant response rating Umbrella sedge: flood test species listed under POSTEMERGENCE, 0 to 100 scale
# Summary of the method: as §2
compound,measurement,setting,value
CCC(C)Oc1cc(-c2nn3c(c2Cl)CCCC3)c(F)cc1Cl (stereo not drawn) [Compound 48],"Plant response rating, Cheatgrass","cheatgrass; POSTEMERGENCE, Rate 50 g/ha",6
same,"Plant response rating, Cheatgrass","cheatgrass; POSTEMERGENCE, Rate 200 g/ha",7
same,"Plant response rating, Cheatgrass","cheatgrass; PREEMERGENCE, Rate 50 g/ha",0
same,"Plant response rating, Cheatgrass","cheatgrass; Rate 200 g/ha, PREEMERGENCE",2
same,"Plant response rating, Cotton","cotton; POSTEMERGENCE, Rate 50 g/ha",10
same,"Plant response rating, Cotton","cotton; POSTEMERGENCE, Rate 200 g/ha",10
same,"Plant response rating, Cotton","cotton; PREEMERGENCE, Rate 50 g/ha",0
same,"Plant response rating, Cotton","cotton; Rate 200 g/ha, PREEMERGENCE",9
same,"Plant response rating, Lambsquarter","lambsquarters [1]; POSTEMERGENCE, Rate 50 g/ha",10
same,"Plant response rating, Lambsquarter","lambsquarters [1]; PREEMERGENCE, Rate 50 g/ha",10
same,"Plant response rating, Lambsquarter","lambsquarters [1]; Rate 200 g/ha, POSTEMERGENCE",10
same,"Plant response rating, Lambsquarter","lambsquarters [1]; Rate 200 g/ha, PREEMERGENCE",10
same,"Plant response rating, Rice","rice; POSTEMERGENCE, Rate 50 g/ha",3
same,"Plant response rating, Rice","rice; PREEMERGENCE, Rate 50 g/ha",1
same,"Plant response rating, Rice","rice; Rate 200 g/ha, POSTEMERGENCE",8
same,"Plant response rating, Rice","rice; Rate 200 g/ha, PREEMERGENCE",2
same,"Plant response rating, Soybean","soybean [2]; POSTEMERGENCE, Rate 50 g/ha",7
same,"Plant response rating, Soybean","soybean [2]; PREEMERGENCE, Rate 50 g/ha",0
same,"Plant response rating, Soybean","soybean [2]; Rate 200 g/ha, POSTEMERGENCE",7
same,"Plant response rating, Soybean","soybean [2]; Rate 200 g/ha, PREEMERGENCE",0
same,"Plant response rating, Velvetleaf","velvetleaf [3]; POSTEMERGENCE, Rate 50 g/ha",9
same,"Plant response rating, Velvetleaf","velvetleaf [3]; PREEMERGENCE, Rate 50 g/ha",0
same,"Plant response rating, Velvetleaf","velvetleaf [3]; Rate 200 g/ha, POSTEMERGENCE",10
same,"Plant response rating, Velvetleaf","velvetleaf [3]; Rate 200 g/ha, PREEMERGENCE",4
same,"Plant response rating, Wild buckwheat","wild buckwheat; POSTEMERGENCE, Rate 50 g/ha",10
same,"Plant response rating, Wild buckwheat","wild buckwheat; PREEMERGENCE, Rate 50 g/ha",9
same,"Plant response rating, Wild buckwheat","wild buckwheat; Rate 200 g/ha, POSTEMERGENCE",9
same,"Plant response rating, Wild buckwheat","wild buckwheat; Rate 200 g/ha, PREEMERGENCE",10
same,"Plant response rating, Nutsedge","purple nutsedge; POSTEMERGENCE, Rate 50 g/ha",4
same,"Plant response rating, Nutsedge","purple nutsedge; PREEMERGENCE, Rate 50 g/ha",0
same,"Plant response rating, Nutsedge","purple nutsedge; Rate 200 g/ha, POSTEMERGENCE",5
same,"Plant response rating, Nutsedge","purple nutsedge; Rate 200 g/ha, PREEMERGENCE",0
same,Plant response rating Barley Igri,barley; 62 g/ha,30
same,Plant response rating Barley Igri,barley; 250 g/ha,40
same,"Plant response rating (0 to 100), Barley Igri",barley; Rate 4 g/ha,10
same,"Plant response rating (0 to 100), Barley Igri",barley; Rate 16 g/ha,20
same,"Plant response rating, Corn",corn; 62 g/ha,40
same,"Plant response rating, Corn",corn; 250 g/ha,50
same,"Plant response rating (0 to 100), Corn",corn; Rate 4 g/ha,10
same,"Plant response rating (0 to 100), Corn",corn; Rate 16 g/ha,30
same,Plant response rating Lambsquarters,lambsquarters [4]; 62 g/ha,100
same,Plant response rating Lambsquarters,lambsquarters [4]; 250 g/ha,100
same,"Plant response rating (0 to 100), Lambsquarters",lambsquarters [4]; Rate 4 g/ha,60
same,"Plant response rating (0 to 100), Lambsquarters",lambsquarters [4]; Rate 16 g/ha,60
same,"Plant response rating, Morningglory",morningglory; 62 g/ha,60
same,"Plant response rating, Morningglory",morningglory; 250 g/ha,95
same,"Plant response rating (0 to 100), Morningglory",morningglory; Rate 4 g/ha,30
same,"Plant response rating (0 to 100), Morningglory",morningglory; Rate 16 g/ha,50
same,"Plant response rating, Rape",rape; 62 g/ha,50
same,"Plant response rating, Rape",rape; 250 g/ha,90
same,"Plant response rating (0 to 100), Rape",rape; Rate 4 g/ha,30
same,"Plant response rating (0 to 100), Rape",rape; Rate 16 g/ha,30
same,"Plant response rating, Sorghum",sorghum; 62 g/ha,50
same,"Plant response rating, Sorghum",sorghum; 250 g/ha,70
same,"Plant response rating (0 to 100), Sorghum",sorghum; Rate 4 g/ha,30
same,"Plant response rating (0 to 100), Sorghum",sorghum; Rate 16 g/ha,40
same,"Plant response rating, Soybean",soybean [5]; 62 g/ha,40
same,"Plant response rating, Soybean",soybean [5]; 250 g/ha,50
same,"Plant response rating (0 to 100), Soybean",soybean [5]; Rate 4 g/ha,30
same,"Plant response rating (0 to 100), Soybean",soybean [5]; Rate 16 g/ha,30
same,"Plant response rating, Sugar beet",sugar beet; 62 g/ha,100
same,"Plant response rating, Sugar beet",sugar beet; 250 g/ha,100
same,"Plant response rating (0 to 100), Sugar beet",sugar beet; Rate 4 g/ha,100
same,"Plant response rating (0 to 100), Sugar beet",sugar beet; Rate 16 g/ha,100
same,"Plant response rating, Velvetleaf",velvetleaf [6]; 62 g/ha,90
same,"Plant response rating, Velvetleaf",velvetleaf [6]; 250 g/ha,90
same,"Plant response rating (0 to 100), Velvetleaf",velvetleaf [6]; Rate 4 g/ha,30
same,"Plant response rating (0 to 100), Velvetleaf",velvetleaf [6]; Rate 16 g/ha,80
same,"Plant response rating (0 to 100), Umbrella sedge","umbrella sedge; POSTEMERGENCE section, flood test, Rate 4 g/ha",10
same,"Plant response rating (0 to 100), Umbrella sedge","umbrella sedge; Rate 16 g/ha, under POSTEMERGENCE head (flood test species)",10
same,Plant response rating Umbrella sedge,umbrella sedge; 62 g/ha,40
same,Plant response rating Umbrella sedge,umbrella sedge; 250 g/ha,70

# Reference: patent US6358885B1, “Substituted phenylheterocyclic herbicides” (Mississippi State University, priority 1992, dated 2002)
